Assay results reported in patent publication US20260109693A1, “BUTENOLIDE COMPOUNDS CONTAINING THIAZOLIDINONE STRUCTURE AS WELL AS PREPARATION METHOD THEREFOR AND USE THEREOF” (priority 2023, published 2026).

System: Fusarium graminearum strains resistant to phenamacril
Assay type: cell-based

“5-(4-methyl-2-oxo-1-oxaspiro[4,5]-dec-3-en-3-ethylidene)-2-thio-4-thiazolidinone [Compound 3-1]” was tested, and the “inhibition rate on resistant strains compared with standard strain” value (1 mg/L and 0.5 mg/L, resistant strains T10, T2-5, T32, T13, T12 vs standard strain 2021) was “the same as that of the standard wild-type Fusarium graminearum strain” and the “growth inhibition of all resistant strains” value (50 mg/L, resistant strains T2-5, T10, T32, T18, T48, T79) was “completely inhibit the growth of all resistant strains”.
